The structures appear in SMILES notation. Like-named read-outs stand apart in the source and are kept apart here.

Series [1] deals with mouse fibrosarcoma M5076. The series can be described thus: anti-tumor effect in mice inoculated subcutaneously with M5076 fibrosarcoma. The format is in vivo, mouse (female BDF1). The conditions noted are these: M5076 s.c. in mice. As to the method: The test animals used were female mice, 8 weeks old, of the BDF1 strain, weighing 20-25 g. The mice were purchased from Charles River Japan Inc., Kanagawa, Japan. The mice were divided into experimental groups, each group containing 6 mice, and all mice within each group were treated identically. Each mouse was inoculated subcutaneouly with 1×10^6viable cells (the number of cells was measured by a dye exclusion method under microscopy) of the mouse fibrosarcoma M5076.
The test compounds (80 mg) listed in the following Table, except radicicol, were dissolved in 0.2 ml of N,N-dimethylacetamide (DMA) and to the solution was added 0.2 ml of 40° C.-warmed HCO60 (polyoxyethylene hydrogenated caster oil 60). Immediately thereafter 3.6 ml of 40° C.-warmed physiological saline was added to form a colloidal solution or a suspension. The final concentration of DMA and HCO60 was 5% v/v, each. Radicicol was dissolved in […] of DMA and the solution was dispersed slowly into 3.75 ml of 10% Emulphor(trade mark)-physiological saline stirred well with a stirring rod. The final concentration of DMA was 6.25%. The solution was administered intravenously (in the case of a suspension it was administered intraperitoneally) on the first, fifth and ninth days following inoculation of the fibrosarcoma cells. The period for which the mice survived and the % inhibition of tumor growth were determined. A control group was treated identically, except that no active compound was administered.
The anti-tumor effect is shown in the following Table as the increase in life span [ILS (%)] and the growth inhibition [GI (%)], calculated from the following equations [R. I. Geran et al., Cancer Chemother. Rept., 3 (1972)]:
Dt=median survival time (days) of mice in the treated group; and
Dc=median survival time (days) of mice in the control group.
In this experiment, Dc was 40-47 days.
TDt=average value of tumor sizes on the fourteenth day in the treated group; and
TDc=average value of tumor sizes on the fourteenth day in the control group tumor size=(tumor length+tumor width )/2.

The conditions of series [2]: in words; cited from earlier work.
In series [3] the test system is fungi (anti-fungal). The conditions noted are these: in words; cited from earlier work.
In series [4] the test system is tumor cells of the mouse mastocytoma P-815. The conditions noted are these: cited from earlier work.
The test system of series [5] is various types of tumor. The series can be described thus: anti-tumor activity against various types of tumor in vivo. An excerpt:
It is believed that the relative inactivity in vivo compared to the good activity in vitro may be a result of an instability of the compound to a component of the mammalian metabolism.

[6] abbreviates: Mus musculus, 336 h, 200 mg/kg iv on days 1, 5 and 9, tumor size on day 14, read-out: growth Inhibition (%).
[7] abbreviates: Mus musculus, 200 mg/kg iv on days 1, 5 and 9, median survival vs control (Dc 40-47 days), read-out: ILS (%) (increase in life span).

Consider `CCCCCCCC/C=C\CCCCCCCC(=O)Oc1cc(OC(=O)CCCCCCC/C=C\CCCCCCCC)c2c(c1Cl)CC(=O)/C=C/C=C\[C@H]1O[C@@H]1C[C@@H](C)OC2=O` [72(cis), 14,16-dioleoylradicicol], for which the inhibition in vivo at 200 mg/kg in series [1] (setting [6]) came out at 80%. For the same compound, the ILS at 200 mg/kg in series [1] (setting [7]) worked out at 4%.

As for `CCCCCCCC/C=C/CCCCCCCC(=O)Oc1cc(OC(=O)CCCCCCC/C=C/CCCCCCCC)c2c(c1Cl)CC(=O)/C=C/C=C\[C@H]1O[C@@H]1C[C@@H](C)OC2=O` [72(trans), 14,16-dielaidoylradicicol], in series [1] (setting [6]), the inhibition in vivo at 200 mg/kg amounted to 86%. Besides, the ILS at 200 mg/kg in series [1] (setting [7]) was determined as 9%.

Consider `CCCCCCCCCCCC(=O)Oc1cc(OC(=O)CCCCCCCCCCC)c2c(c1Cl)CC(=O)/C=C/C=C\[C@H]1O[C@@H]1C[C@@H](C)OC2=O` [Compound 17, 14,16-dilauroylradicicol], for which, in series [1] (setting [6]), the inhibition in vivo at 200 mg/kg is 89%. The ILS at 200 mg/kg in series [1] (setting [7]) came out at 24%.

Regarding `CCCCCCCCCCCCC(=O)Oc1cc(OC(=O)CCCCCCCCCCCC)c2c(c1Cl)CC(=O)/C=C/C=C\[C@H]1O[C@@H]1C[C@@H](C)OC2=O` [Compound 19, 14,16-ditridecanoylradicicol], in series [1] (setting [6]), the inhibition in vivo at 200 mg/kg came to 89%. For the same compound, the ILS at 200 mg/kg in series [1] (setting [7]) amounted to 9%.

In the case of `CCCCCCCCCCCCCC(=O)Oc1cc(OC(=O)CCCCCCCCCCCCC)c2c(c1Cl)CC(=O)/C=C/C=C\[C@H]1O[C@@H]1C[C@@H](C)OC2=O` [Compound 21, 14,16-dimyristoylradicicol], the inhibition in vivo at 200 mg/kg in series [1] (setting [6]) was found to be 91%. The ILS at 200 mg/kg in series [1] (setting [7]) stood at 35%.

In the case of `CCCCCCCCCCCCCCC(=O)Oc1cc(OC(=O)CCCCCCCCCCCCCC)c2c(c1Cl)CC(=O)/C=C/C=C\[C@H]1O[C@@H]1C[C@@H](C)OC2=O` [Compound 23, 14,16-dipentadecanoylradicicol], in series [1] (setting [6]), the inhibition in vivo at 200 mg/kg came to 95%. Further, the ILS at 200 mg/kg in series [1] (setting [7]) came out at 35%.

Consider `CCCCCCCCCCCCCCCC(=O)Oc1cc(OC(=O)CCCCCCCCCCCCCCC)c2c(c1Cl)CC(=O)/C=C/C=C\[C@H]1O[C@@H]1C[C@@H](C)OC2=O` [Compound 25, 14,16-dipalmitoylradicicol], for which, in series [1] (setting [6]), the inhibition in vivo at 200 mg/kg stood at 100%. Moreover, the ILS at 200 mg/kg in series [1] (setting [7]) stood at 43%.

As to `CCCCCCCCCCCCCCCCC(=O)Oc1cc(OC(=O)CCCCCCCCCCCCCCCC)c2c(c1Cl)CC(=O)/C=C/C=C\[C@H]1O[C@@H]1C[C@@H](C)OC2=O` [Compound 28, 14,16-diheptadecanoylradicicol], the inhibition in vivo at 200 mg/kg in series [1] (setting [6]) was 95%. In addition, the ILS at 200 mg/kg in series [1] (setting [7]) came to 27%.

For the compound `CCCCCCCCCCCCCCCCCC(=O)Oc1cc(OC(=O)CCCCCCCCCCCCCCCCC)c2c(c1Cl)CC(=O)/C=C/C=C\[C@H]1O[C@@H]1C[C@@H](C)OC2=O` [Compound 31, 14,16-distearoylradicicol], in series [1] (Mus musculus, 336 h, 200 mg/kg ip on days 1, 5 and 9, tumor size on day 14, read-out: growth Inhibition (%)), the inhibition in vivo at 200 mg/kg amounted to 66%. In addition, the ILS at 200 mg/kg in series [1] (Mus musculus, 200 mg/kg ip on days 1, 5 and 9, median survival vs control (Dc 40-47 days), read-out: ILS (%) (increase in life span)) is -4%.

Turning to `CCCCCC/C=C\CCCCCCCC(=O)Oc1cc(OC(=O)CCCCCCC/C=C\CCCCCC)c2c(c1Cl)CC(=O)/C=C/C=C\[C@H]1O[C@@H]1C[C@@H](C)OC2=O` [Compound 70, 14,16-dipalmitoleoylradicicol], the inhibition in vivo at 200 mg/kg in series [1] (setting [6]) was 65%. The ILS at 200 mg/kg in series [1] (setting [7]) was 31%.

`CC/C=C\C/C=C\C/C=C\CCCCCCCC(=O)Oc1cc(OC(=O)CCCCCCC/C=C\C/C=C\C/C=C\CC)c2c(c1Cl)CC(=O)/C=C/C=C\[C@H]1O[C@@H]1C[C@@H](C)OC2=O` [Compound 76, 14,16-dilinolenoylradicicol]: in series [1] (200 mg/kg iv on days 1, 5 and 9, median survival vs control (Dc 40-47 days)), the “ILS (%) (increase in life span)” value was 11%. Also, the “growth Inhibition (%)” value in series [1] (200 mg/kg iv on days 1, 5 and 9, tumor size on day 14) stood at 74%.

As for `C[C@@H]1C[C@H]2O[C@@H]2/C=C\C=C\C(=O)Cc2c(Cl)c(O)cc(O)c2C(=O)O1` [radicicol], in series [2], the “effect on the central nervous system” value is reported as “without having any effect on the central nervous system” and the tranquilizing activity entry is listed as “relatively strong tranquilizing activity”. The “antibiotic activity (nature of)” value in series [3] is “strictly anti-fungal”. Moreover, the “inhibitory effect in vitro on the growth of tumor cells” value in series [4] is “strong inhibitory effect”. For the same compound, the “anti-tumor activity in vivo” value in series [5] was “little anti-tumor activity”. In addition, the inhibition in vivo at 150 mg/kg in series [1] (Mus musculus, 336 h, 150 mg/kg iv on days 1, 5 and 9, tumor size on day 14, read-out: growth Inhibition (%)) worked out at 5%. Besides, in series [1] (Mus musculus, 150 mg/kg iv on days 1, 5 and 9, median survival vs control (Dc 40-47 days), read-out: ILS (%) (increase in life span)), the ILS at 150 mg/kg was -29%.

(Values after US5650430A, “Radicicol derivatives, their preparation and their anti-tumor activity” (Sankyo Company, Limited, priority 1990, dated 1997).)
